Several values for one entry are separate records, joined by “and”; a condition that tells them apart may be missing. Identical values can stand only once. Toxic doses and inconclusive results are not listed. Rule as the data show it: active = T/C of 150% or more; inactive = T/C below 125%.
System: L1210 leukemia ip in BDF1 mice, survival T/C
Test: NCI In Vivo Anticancer Drug Screen. Data for tumor model L1210 Leukemia (intraperitoneal) in B6D2F1 (BDF1) mice
Settings: endpoint: mean survival time, higher = longer survival
Procedure, shortened: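 Antitumor effect is assessed in tumor-bearing animals. Survival in the compound arm is compared with a vehicle-dosed control arm and expressed as their quotient.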

[1] = dose: 200.0 mg/kg/injection, schedule: Q01DX001 (ip), vehicle: saline
[2] = dose: 100.0 mg/kg/injection, schedule: Q04DX002 (ip), vehicle: Klucel (hydroxypropylcellulose) (HPC)
[3] = dose: 200.0 mg/kg/injection, schedule: Q04DX002 (ip), vehicle: Klucel (hydroxypropylcellulose) (HPC)
[4] = dose: 10.0 mg/kg/injection, schedule: Q01DX001 (ip), vehicle: saline
[5] = dose: 20.0 mg/kg/injection, schedule: Q01DX001 (ip), vehicle: saline
[6] = dose: 40.0 mg/kg/injection, schedule: Q01DX001 (ip), vehicle: saline
[7] = dose: 25.0 mg/kg/injection, schedule: Q01DX009 (ip), vehicle: saline with Tween-80
[8] = dose: 50.0 mg/kg/injection, schedule: Q01DX009 (ip), vehicle: saline with Tween-80

Measured: T/C

O=C(Nc1ccc(Cl)cc1C(F)(F)F)Oc1ccc(OCc2ccccc2)cc1
inactive: dose: 100.0 mg/kg/injection, schedule: Q01DX009 (ip), vehicle: saline with Tween-80 94 % of control | dose: 200.0 mg/kg/injection, schedule: Q01DX009 (ip), vehicle: saline with Tween-80 100 % of control | dose: 400.0 mg/kg/injection, schedule: Q01DX009 (ip), vehicle: saline with Tween-80 92 % of control

CC1CN(Cc2ccccc2)C(=S)NC1=O (configuration not stated)
inactive: dose: 25.0 mg/kg/injection, schedule: Q01DX Z (ip), vehicle: methylcellulose (MC) 89 % of control | dose: 50.0 mg/kg/injection, schedule: Q01DX Z (ip), vehicle: methylcellulose (MC) 98 % of control

C/C=C\C(=O)OCC(C)CCC (configuration not stated)
inactive: dose: 100.0 mg/kg/injection, schedule: Q04DX002 (ip), vehicle: saline with Tween-80 97 % of control | dose: 200.0 mg/kg/injection, schedule: Q04DX002 (ip), vehicle: saline with Tween-80 102 % of control

CC1(N=C(N)CSSCC(N)=NC2(C)CCC(C(C)(C)C)CC2)CCC(C(C)(C)C)CC1 (configuration not stated)
inactive: dose: 0.7 mg/kg/injection, schedule: Q01DX009 (ip), vehicle: other 93 % of control and 96 % of control | dose: 1.0 mg/kg/injection, schedule: Q01DX001 (ip), vehicle: other 107 % of control | dose: 1.0 mg/kg/injection, schedule: Q01DX009 (ip), vehicle: other 101 % of control and 103 % of control | dose: 1.56 mg/kg/injection, schedule: Q01DX009 (ip), vehicle: other 97 % of control and 101 % of control | dose: 2.0 mg/kg/injection, schedule: Q01DX001 (ip), vehicle: other 105 % of control | dose: 2.35 mg/kg/injection, schedule: Q01DX009 (ip), vehicle: other 105 % of control and 90 % of control | dose: 3.12 mg/kg/injection, schedule: Q01DX009 (ip), vehicle: carboxymethylcellulose (CMC) 112 % of control | dose: 4.0 mg/kg/injection, schedule: Q01DX001 (ip), vehicle: other 111 % of control | dose: 5.0 mg/kg/injection, schedule: Q04DX003 (ip), vehicle: other 95 % of control | dose: 6.25 mg/kg/injection, schedule: Q01DX009 (ip), vehicle: carboxymethylcellulose (CMC) 102 % of control | dose: 6.25 mg/kg/injection, schedule: Q01DX009 (ip), vehicle: other 98 % of control | dose: 10.0 mg/kg/injection, schedule: Q04DX003 (ip), vehicle: other 105 % of control | dose: 12.5 mg/kg/injection, schedule: Q01DX009 (ip), vehicle: other 102 % of control | dose: 12.5 mg/kg/injection, schedule: Q04DX002 (ip), vehicle: other 104 % of control and 90 % of control | dose: 25.0 mg/kg/injection, schedule: Q04DX002 (ip), vehicle: carboxymethylcellulose (CMC) 102 % of control and 112 % of control

COc1ccc(/C=N/O)cc1
inactive: dose: 50.0 mg/kg/injection, schedule: Q01DX001 (ip), vehicle: saline 100 % of control | dose: 100.0 mg/kg/injection, schedule: Q01DX001 (ip), vehicle: saline 93 % of control | [1] 100 % of control | dose: 400.0 mg/kg/injection, schedule: Q01DX001 (ip), vehicle: saline 96 % of control

O=C(O)c1cc(Cl)c(Br)c(Cl)c1
inactive: [2] 100 % of control | [3] 107 % of control

Cc1ccc(N2CCN(c3ccc(C)cc3)CC2)cc1
inactive: dose: 100.0 mg/kg/injection, schedule: Q04DX002 (ip), vehicle: gum acacia 109 % of control | dose: 200.0 mg/kg/injection, schedule: Q04DX002 (ip), vehicle: gum acacia 95 % of control | dose: 400.0 mg/kg/injection, schedule: Q04DX002 (ip), vehicle: gum acacia 103 % of control

CCCCCCCCCCCCCCCCCC[n+]1cccc(C#N)c1
inactive: dose: 5.0 mg/kg/injection, schedule: Q01DX009 (ip), vehicle: saline 98 % of control | [4] 93 % of control | dose: 10.0 mg/kg/injection, schedule: Q01DX009 (ip), vehicle: saline 92 % of control | dose: 10.0 mg/kg/injection, schedule: Q04DX003 (ip), vehicle: saline 105 % of control | [5] 91 % of control | dose: 20.0 mg/kg/injection, schedule: Q04DX003 (ip), vehicle: saline 97 % of control | [6] 91 % of control | dose: 40.0 mg/kg/injection, schedule: Q04DX003 (ip), vehicle: saline 114 % of control

CSc1ncnc2[nH]ncc12
inactive: [7] 108 % of control | dose: 25.0 mg/kg/injection, schedule: Q04DX003 (ip), vehicle: saline with Tween-80 105 % of control | [8] 102 % of control | dose: 50.0 mg/kg/injection, schedule: Q04DX003 (ip), vehicle: saline with Tween-80 103 % of control | dose: 100.0 mg/kg/injection, schedule: Q04DX003 (ip), vehicle: saline with Tween-80 96 % of control and 106 % of control

C=C1CC(c2ccc(S(=O)(=O)N3CCOCC3)cc2)OC1=O (configuration not stated)
inactive: dose: 1.56 mg/kg/injection, schedule: Q01DX009 (ip), vehicle: Klucel (hydroxypropylcellulose) (HPC) 94 % of control | dose: 3.12 mg/kg/injection, schedule: Q01DX009 (ip), vehicle: Klucel (hydroxypropylcellulose) (HPC) 106 % of control | dose: 6.25 mg/kg/injection, schedule: Q01DX009 (ip), vehicle: Klucel (hydroxypropylcellulose) (HPC) 106 % of control | dose: 12.5 mg/kg/injection, schedule: Q01DX009 (ip), vehicle: Klucel (hydroxypropylcellulose) (HPC) 105 % of control | dose: 25.0 mg/kg/injection, schedule: Q01DX009 (ip), vehicle: Klucel (hydroxypropylcellulose) (HPC) 93 % of control | [2] 95 % of control | [3] 113 % of control

FC(F)(F)C(F)(Cl)C(Cl)(Cl)C(F)(F)F (configuration not stated)
inactive: dose: 100.0 mg/kg/injection, schedule: Q01DX009 (ip), vehicle: saline 97 % of control | dose: 100.0 mg/kg/injection, schedule: Q04DX003 (ip), vehicle: saline 100 % of control | dose: 200.0 mg/kg/injection, schedule: Q01DX009 (ip), vehicle: saline 97 % of control | dose: 200.0 mg/kg/injection, schedule: Q04DX003 (ip), vehicle: saline 101 % of control | dose: 400.0 mg/kg/injection, schedule: Q01DX009 (ip), vehicle: saline 97 % of control | dose: 400.0 mg/kg/injection, schedule: Q04DX003 (ip), vehicle: saline 90 % of control

COc1ccc(C)cc1NC(=O)Nc1ccccc1F
inactive: dose: 100.0 mg/kg/injection, schedule: Q01DX009 (ip), vehicle: Klucel (hydroxypropylcellulose) (HPC) 97 % of control and 91 % of control | dose: 200.0 mg/kg/injection, schedule: Q01DX009 (ip), vehicle: Klucel (hydroxypropylcellulose) (HPC) 89 % of control | dose: 400.0 mg/kg/injection, schedule: Q01DX009 (ip), vehicle: Klucel (hydroxypropylcellulose) (HPC) 92 % of control and 101 % of control

ClCCN(CCCl)CCCNc1cc(-c2ccc(Cl)cc2)nc2cc(Cl)ccc12
inactive: dose: 5.0 mg/kg/injection, schedule: Q01DX001 (ip), vehicle: saline 101 % of control | [4] 101 % of control | [5] 109 % of control | [6] 104 % of control | dose: 80.0 mg/kg/injection, schedule: Q01DX001 (ip), vehicle: saline 92 % of control | [1] 106 % of control

CCn1cnc2c(C(F)(F)F)nc(N)nc21
inactive: dose: 12.5 mg/kg/injection, schedule: Q01DX001 (ip), vehicle: acetone 94 % of control | dose: 12.5 mg/kg/injection, schedule: Q01DX009 (ip), vehicle: saline with Tween-80 96 % of control | dose: 12.5 mg/kg/injection, schedule: Q04DX003 (ip), vehicle: saline 103 % of control | dose: 25.0 mg/kg/injection, schedule: Q01DX001 (ip), vehicle: acetone 94 % of control | [7] 101 % of control | dose: 25.0 mg/kg/injection, schedule: Q04DX003 (ip), vehicle: saline 87 % of control | dose: 50.0 mg/kg/injection, schedule: Q01DX001 (ip), vehicle: acetone 101 % of control | [8] 95 % of control | dose: 50.0 mg/kg/injection, schedule: Q04DX003 (ip), vehicle: saline 97 % of control

O=C(CCl)N=c1cc(-c2ccc(Cl)cc2)ss1
inactive: dose: 50.0 mg/kg/injection, schedule: Q04DX002 (ip), vehicle: saline 98 % of control | dose: 100.0 mg/kg/injection, schedule: Q04DX002 (ip), vehicle: saline 98 % of control

COc1ccccc1/C=C/C(=O)N1CCC2(CC1)C(=O)N(C)CN2c1ccccc1
inactive: dose: 75.0 mg/kg/injection, schedule: Q04DX003 (ip), vehicle: Klucel (hydroxypropylcellulose) (HPC) 96 % of control | dose: 150.0 mg/kg/injection, schedule: Q04DX003 (ip), vehicle: Klucel (hydroxypropylcellulose) (HPC) 86 % of control | dose: 300.0 mg/kg/injection, schedule: Q04DX003 (ip), vehicle: Klucel (hydroxypropylcellulose) (HPC) 91 % of control

CCOC(=O)C1OC(n2cnc3c(N)ncnc32)C(O)C1O (configuration not stated)
inactive: dose: 100.0 mg/kg/injection, schedule: Q01DX005 (ip), vehicle: saline 98 % of control | dose: 200.0 mg/kg/injection, schedule: Q01DX005 (ip), vehicle: saline 97 % of control
